This is an account of results in patent publication US5401853A, “Thiadiazole derivatives for the treatment of depressive states” (Laboratorio Farmaceutico C.T. S.r.l., priority 1992, dated 1995).

A short description of data set [1]: Acute toxicity (LD50) in mice. The conditions noted are these: mouse, in vivo, read-out: LD50 (DL50).
The test system of the next data set is mice. Nature of the data set: Dispair test (Porsolt) in mice. The conditions noted are these: for immobility duration: 1 hour before test. Format: in vivo, Swiss strain male mice (CD-1 Charles River). The procedure: This behaviouristic test conceived by Porsolt (1977 --Nature, 266 730-732 is generally utilized to evaluate the antidepressant activity.
Swiss strain male mice of average weight of 30 g (CD -1 Charles River) casually assigned to the different treatment groups are used.
The method consists in placing the animal in a plexiglas cylinder 25 cm high and with a diameter of 9 cm filled with water at 24° C. up to a level of 6 cm.
The test lasts 6 minutes and the time in which the animal lets itself float without reacting is measured starting from the 2nd minute (immobility duration).
The animals ape treated by intraperitoneal route (injection volume 10 ml/kg) 1 hour before the test.
The evaluation is carried out in blind. The statistical analysis of the results is carried out where it is possible by means of the T-Student test, otherwise the non parametric test of Mann Whitney is used.

For the next data set, the system named is rats. Nature of the data set: Social Interaction test in rats (anxiolythic activity). It counts as in vivo, Sprague-Dawley male rats. The conditions noted are these: for Social Interaction increase (%): 1 hour before test, vs controls. From the text: The behaviouristic Social Interaction test found by FILE was used. (Animal models of psychiatric disorders, vol. 1 Karger, Basel, pp 151-166).
It consists in an experimental procedure permitting to evaluate the influence of the pharmacological treatment on the spontaneous behaviour of the rat, by means of the social component which in this animal is particularly accentuated.
Sprague-Dawley male rats weighing about 250 g are used. After a normal stabling period (2 weeks), the animal are isolated in smaller cages (267×207×140 mm surface 410 cm^2) for a period of about 5 days.
Then the rats are gathered into couples, avoiding that weight difference between the two animals overcomes 10 g and that the couple components had not previously stabled together.
The couple thus gathered are assigned to the respective treatment group.
Diazepam was utilized as the positive control drug: 1,25 mg/kg are intraperitoneally administered 30' before carrying out the test.
The compounds to be tested are administered 1 hour before carrying out the test.
The box utilized [55×55×30 cm (height)] for the animal observation is white, completely washable and provided with a floor split up into 25 squares.
A 100 Watt lamp is placed upon the box at 50 cm from the floor. The test is realized in a remote room whose only light source is represented by the lamp lighting the box.
The evaluation is carried out in blind. The animals are observed indirectly, by means of a mirror suitably placed.
Evaluated parameters: time passed in Social Interaction (sniffing pursuit, grooming, boxing etc.).
The box is systematically cleaned up after every test.
The results are expressed as a function of a percentage increase of Social Interaction of the treated animals in comparison with the controls.

The next data set can be described thus: Solubility in solvents. It counts as physicochemical.

The structures appear in SMILES notation. Like-named read-outs stand apart in the source and are kept apart here. Where only a bound is given, the exact number is not on record here.

For orientation: LD50 means the dose at which mortality reaches 50%. With `Nc1nnc(SCc2ccccc2)s1` [B16, 2-amino-5-benzylmercapto-1,3,4-thiadiazole], the LD50 in data set [1] (ip) was over 600 mg/kg; in data set [1] (po, per os), over 600 mg/kg. For the same molecule, the immobility duration turned out to be 197 ± 22 in the data set with mice (1 mg/kg i.p.); 171 ± 23 in the data set on mice (5 mg/kg i.p.); 132 ± 45 in the data set on mice (10 mg/kg i.p.); 186 ± 14 in the data set on mice (15 mg/kg i.p.); 199 ± 16 in the data set with mice (20 mg/kg i.p.). In the data set on mice (Mus musculus, ip, 1 h, 5 mg/kg i.p., vs control (dosage 0), read-out: immobility duration < % (decrease)), the inhibition in vivo at 5 mg/kg was determined as 16%. The inhibition in vivo at 10 mg/kg in the data set on mice (Mus musculus, ip, 1 h, 10 mg/kg i.p., vs control (dosage 0), read-out: immobility duration < % (decrease)) amounted to 35%. The inhibition in vivo at 15 mg/kg in the data set with mice (Mus musculus, ip, 1 h, 15 mg/kg i.p., vs control (dosage 0), read-out: immobility duration < % (decrease)) came to 8%. For the same molecule, in the data set with mice (Mus musculus, ip, 1 h, Dispair test, i.p., read-out: active dosage), the minimal effective dose lay within 5 to 10 mg/kg. In addition, the “Social Interaction increase (%)” value with rats (0.5 mg/kg) is listed as 40%; in the data set on rats (1 mg/kg), 67%; in the data set on rats (2.5 mg/kg), 94%; with rats (5 mg/kg), 51%. Besides, the “shape of dose-response curve, Social Interaction” value with rats (0.5-5 mg/kg) is “Gaussian shape”. The “solubility in alcohols, chloroform, ethyl acetate, acetone” value in the data set “Solubility in solvents” is “soluble”. In “Solubility in solvents”, the “solubility in ether and water” value was “insoluble”.
